Measured values taken from ChEMBL document CHEMBL3526000 (Drug Metab Dispos, 2012).

Columns and labels:
[1] = target: T1, UDP-glucuronosyltransferase 2B15 (Homo sapiens, UniProt P54855); experiment: Drug metabolism assessed as recombinant human UGT2B15 assessed as N-glucuronidation at 100 uM incubated for 60 mins by LC-MS/MS analysis; format: ADME; conditions: recombinant enzyme, 1 h
T1 sequence (P54855 whole entry): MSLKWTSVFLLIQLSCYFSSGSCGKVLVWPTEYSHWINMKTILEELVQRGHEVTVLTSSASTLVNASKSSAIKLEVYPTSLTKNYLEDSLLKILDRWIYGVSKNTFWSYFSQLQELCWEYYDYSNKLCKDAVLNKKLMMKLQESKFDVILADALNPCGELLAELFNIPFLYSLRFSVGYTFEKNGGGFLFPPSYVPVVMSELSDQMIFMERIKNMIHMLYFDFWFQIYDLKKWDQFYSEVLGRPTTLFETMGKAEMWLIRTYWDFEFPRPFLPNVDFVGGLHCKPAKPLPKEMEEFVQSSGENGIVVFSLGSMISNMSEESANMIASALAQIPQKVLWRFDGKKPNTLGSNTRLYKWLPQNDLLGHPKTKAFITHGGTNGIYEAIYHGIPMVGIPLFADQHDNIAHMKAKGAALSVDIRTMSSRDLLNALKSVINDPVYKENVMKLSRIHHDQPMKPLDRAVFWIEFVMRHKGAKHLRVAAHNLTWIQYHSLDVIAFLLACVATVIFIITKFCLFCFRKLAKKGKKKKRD

[2] = target: T1, UDP-glucuronosyltransferase 2B15; experiment: Drug metabolism assessed as recombinant human UGT2B15 assessed as O-glucuronidation at 100 uM incubated for 60 mins by LC-MS/MS analysis; format: ADME; conditions: recombinant enzyme, 1 h
[3] = Drug excretion in human urine; format: ADME; conditions: read-out: Drug excretion
[4] = target: T2, UDP-glucuronosyltransferase 2B7 (Homo sapiens, UniProt P16662); experiment: Drug metabolism assessed as recombinant human UGT2B7 assessed as O-glucuronidation measured as inhibition constant at 10 to 400 uM incubated for 60 mins by LC-MS/MS analysis
T2 sequence (P16662 whole entry): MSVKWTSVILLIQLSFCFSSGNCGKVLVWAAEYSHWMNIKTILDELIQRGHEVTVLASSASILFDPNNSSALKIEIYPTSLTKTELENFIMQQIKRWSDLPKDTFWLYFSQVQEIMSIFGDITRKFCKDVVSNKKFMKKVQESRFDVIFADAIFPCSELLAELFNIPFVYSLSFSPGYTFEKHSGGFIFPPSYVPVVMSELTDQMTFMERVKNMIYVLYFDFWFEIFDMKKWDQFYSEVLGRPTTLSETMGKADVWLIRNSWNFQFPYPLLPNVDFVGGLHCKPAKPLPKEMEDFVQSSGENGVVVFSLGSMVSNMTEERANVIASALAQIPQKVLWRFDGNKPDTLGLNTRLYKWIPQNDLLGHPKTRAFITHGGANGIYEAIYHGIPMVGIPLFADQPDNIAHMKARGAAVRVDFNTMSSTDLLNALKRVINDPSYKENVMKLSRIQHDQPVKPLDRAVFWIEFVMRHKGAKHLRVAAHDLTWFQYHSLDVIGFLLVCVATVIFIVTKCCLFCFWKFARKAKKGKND

[5] = target: T3, UDP-glucuronosyltransferase 1A6 (Homo sapiens, UniProt P19224); experiment: Drug metabolism assessed as recombinant human UGT1A6 assessed as O-glucuronidation at 100 uM incubated for 60 mins by LC-MS/MS analysis; format: ADME; conditions: recombinant enzyme, 1 h
T3 sequence (P19224 whole entry): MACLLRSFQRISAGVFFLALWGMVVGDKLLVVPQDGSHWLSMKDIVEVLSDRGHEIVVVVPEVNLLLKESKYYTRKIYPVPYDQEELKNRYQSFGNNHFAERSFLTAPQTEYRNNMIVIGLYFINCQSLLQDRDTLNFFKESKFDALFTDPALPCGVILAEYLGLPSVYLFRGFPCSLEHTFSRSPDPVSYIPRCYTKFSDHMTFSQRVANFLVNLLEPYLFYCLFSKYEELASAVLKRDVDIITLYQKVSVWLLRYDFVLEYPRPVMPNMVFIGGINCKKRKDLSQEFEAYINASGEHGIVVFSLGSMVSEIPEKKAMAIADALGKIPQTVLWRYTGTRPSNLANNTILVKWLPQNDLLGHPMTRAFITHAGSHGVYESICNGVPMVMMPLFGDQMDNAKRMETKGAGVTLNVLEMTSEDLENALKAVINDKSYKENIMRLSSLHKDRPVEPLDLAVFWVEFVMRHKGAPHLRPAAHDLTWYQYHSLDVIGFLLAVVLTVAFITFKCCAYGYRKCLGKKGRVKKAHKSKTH

UGT1A4 = target: T4, UGT1A4 (Homo sapiens, UniProt P22310); experiment: Drug metabolism assessed as recombinant human UGT1A4 assessed as O-glucuronidation at 10 to 400 uM incubated for 60 mins by LC-MS/MS analysis
T4 sequence (P22310 whole entry): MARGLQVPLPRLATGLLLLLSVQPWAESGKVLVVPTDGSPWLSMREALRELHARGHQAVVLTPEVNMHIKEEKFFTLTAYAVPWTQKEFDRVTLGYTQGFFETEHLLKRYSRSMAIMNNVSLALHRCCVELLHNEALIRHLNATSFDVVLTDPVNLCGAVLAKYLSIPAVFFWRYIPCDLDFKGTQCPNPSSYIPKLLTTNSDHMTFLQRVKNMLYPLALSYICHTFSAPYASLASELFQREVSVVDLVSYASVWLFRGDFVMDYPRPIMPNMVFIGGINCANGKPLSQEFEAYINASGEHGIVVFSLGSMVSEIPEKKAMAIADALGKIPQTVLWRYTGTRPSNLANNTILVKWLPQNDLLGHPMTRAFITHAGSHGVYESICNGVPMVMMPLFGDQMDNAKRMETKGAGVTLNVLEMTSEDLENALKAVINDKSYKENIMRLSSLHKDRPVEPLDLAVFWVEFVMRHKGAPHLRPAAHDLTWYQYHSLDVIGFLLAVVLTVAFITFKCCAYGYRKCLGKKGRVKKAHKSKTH

With `O=C(CCCN1CCC(O)(c2ccc(Cl)cc2)CC1)c1ccc(F)cc1` [HALOPERIDOL] the Drug metabolism [1] was “metabolite_not_detected”, the Drug metabolism [2] was “metabolite_not_detected” and the dose excreted [3] was 1%. For the same compound, the Ki [4] was 590 µM, the Drug metabolism [5] was “metabolite_not_detected” and the Km at 1 h, 400 µM (UGT1A4) was 64 µM.
